Laboratory results reported in paper PMC5655689, “Therapeutic potential of the phosphino Cu(I) complex (HydroCuP) in the treatment of solid tumors” (Scientific Reports, 2017).
Values joined by “and” are separate entries in the source; they are usually repeats but may differ in a detail not shown here. Identical values can stand only once.

Legend:
[1] = tested on: HCT-15 human colon cancer spheroids; assay: 3D spheroid cell viability, acid phosphatase (APH) assay, HCT-15; format: cell-based; details: HCT-15 spheroids, 72 h, APH test; read-out: IC50 (μM) ± SD HCT-15
Method: (§1) In order to improve the predictive capacity of the in vitro assays, we tested HydroCuP activity in two 3D cell cultures of human colon cancer cells, HCT-15 and LoVo. The colon cancer spheroids were treated with HydroCuP for 72 h and the cell viability was assessed by means of the acid phosphatase (APH) assay (Fig. 1, panel A).
(§2) Figure 1 Activity in 3D cell cultures. (A) Spheroids (2.5 × 10^3 cells/well) were treated for 72 h with increasing concentrations of tested compounds. The growth inhibitory effect was evaluated by means of APH test. IC50 values were calculated from the dose-survival curves by four parameter logistic model (P < 0.05). SD = standard deviation.
(§3) Spheroids were initiated in liquid overlay by seeding 2.5 × 10^3 HCT-15 and LoVo cells/well in phenol red-free RPMI-1640 medium (Sigma Chemical Co.), containing 10% FCS and supplemented with 20% methyl cellulose stock solution. A total of 150 μl of this cell suspension was transferred to each well of a round bottom non-tissue culture treated 96 well-plate (Greiner Bio-one, Kremsmünster, Austria) to allow spheroid formation within 72 h.
(§4) A modified APH assay, which is based on quantification of cytosolic acid phosphatase activity, was used for determining cell viability in spheroids. Briefly, the pre-seeded spheroids were treated with fresh medium containing the compound to be studied at the appropriate concentration (range 5–150 μM). Triplicate cultures were established for each treatment. After 72 h, each well was treated with 100 μL of the assay buffer (0.1 M sodium acetate, 0.1% Triton-X-100, supplemented with ImmunoPure p-nitrophenyl phosphate; Sigma Chemical Co.) and, following 3 h of incubation, 10 μL of 1 M NaOH solution were added. The inhibition of the cell growth induced by the tested complexes was detected by measuring the absorbance of each well at 405 nm, using a Bio-Rad 680 microplate reader. Mean absorbance for each drug dose was expressed as a percentage of the control untreated well absorbance (T/C) and plotted vs drug concentration. IC50 values, the drug concentrations that reduce the mean absorbance at 405 nm 50% of those in the untreated control wells, were calculated by four-parameter logistic (4-PL) model. Evaluation was based on means from at least four independent experiments.

[2] = tested on: LoVo human colon cancer spheroids; assay: 3D spheroid cell viability, acid phosphatase (APH) assay, LoVo; format: cell-based; details: 72 h, APH test, read-out: IC50 (μM) ± SD LoVo
Method: as §1, §2, §3, §4

[3] = patients, reported by the Food and Drug Administration; cited from earlier work
[4] = tested on: DRG explants from 15 day-embryonic Sprague-Dawley rats; assay: Neurotoxicity: neurite elongation in DRG explants; details: 48 h, DRG explants with NGF; for Neurotoxic effect (neurite elongation): OXP 5, 7.5, 10 μM, HydroCuP 5, 10, 20 μM
Method: To investigate the potential neurotoxic effect of HydroCuP, we employed a well-established in vitro model based on organotypic cultures of DRG from 15-day-old rat embryos. Neurite elongation under NGF influence was evaluated in DRG explants. […] For comparison purposes, the effect induced by the reference drugs OXP and CDDP was also tested.
OXP and HydroCuP toxicity at 48 h in DRG explants from 15 day-embryonic Sprague-Dawley rats. Representative images of neurite length in maturing DRG explants with different concentrations of OXP and HydroCuP (A). Bar: 500 µm.
DRG from E15 Sprague-Dawley rats (Envigo, San Pietro al Natisone, Italy) were aseptically removed and cultured onto a single layer of rat tail collagen surfaces in 35-mm dishes as previously described[36].
The DRG were incubated in AN2 medium [MEM added with 1.4 mM L-glutamine (Euroclone, Pero, Italy), 10% calf bovine serum (Hyclone, Thermo Scientific, Logan, UT) 50 µg/ml ascorbic acid, 0.6% glucose (Sigma-Aldrich) in the presence of 5 ng/ml nerve growth factor (NGF; Life Technologies, Monza, Italy) in a 5% CO2 humidified incubator at 37 °C.
To evaluate the neurotoxicity of HydroCuP and OXP, the DRG explants were treated for 2 h with NGF and subsequently exposed to each drug at different concentrations for 48 h. OXP was tested at 5, 7.5 and 10 μM while 5, 10 and 20 μM of HydroCuP was used. DRG treated with AN2 medium supplemented with 5 ng/ml NGF alone were used as controls. Phase-contrast micrographs were taken, and the length of the longest neurite in each DRG was measured by Image J (NIH, Bethesda, MD), using a standard calibration grating photographed at the same magnification. A compound is considered neurotoxic when the mean neurite elongation is reduced by 50% or more after drug exposure vs control.

[5] = tested on: LoVo colorectal oxaliplatin-sensitive xenograft; assay: In vivo activity toward LoVo (OXP-sensitive) tumor xenograft in BALB/c nu/nu mice
Method: (§5) To this aim, we developed the OXP-sensitive and OXP-resistant LoVo xenografts in BALB/c nu/nu mice. […] OXP-sensitive or OXP-resistant LoVo cells (1 × 10^7) were injected in the flank of mice. Once tumor was established (tumor volumes of about 0.4 cm^3, around 14 days after tumor inoculation), mice were randomly divided into six groups (6 animals per group, 8 controls). The HydroCuP-treated groups (6 mice each group) received daily 30 mg/kg by i.p. injection and the OXP-treated group was given 2 mg/kg by i.p. injection. At day 30, animals were sacrificed, and the inhibition of tumor growth was determined (Fig. 4, panel A). Measurements of body weights were recorded from day 14 every 2 days until the experimental endpoint (Fig. 4, panel B).
(§6) (A) LoVo and LoVo-OXP tumor xenografts in 6-week-old BALB/c nu/nu mice by injecting 1 × 10^7 tumor cells subcutaneously on the left dorsal flank. After 24 h from tumor implantation, mice randomly divided into six groups (6 animals per group). Chemotherapy delayed until day 14 (tumor volumes of about 0.4 cm^3). From day 14, HydroCuP dosed daily at 30 mg/kg i.p., OXP dosed daily at 2 mg/kg i.p. At day 30, animals sacrificed, and the inhibition of tumor growth determined by comparing the volume of the control group and the treatment group expressed as percentage referred to the control animals. Error bars indicate the S.D. *p < 0.05, **p < 0.01, with respect to control. […] Body weight was measured every two days and was taken as a parameter of systemic toxicity. The error bars indicate the S.D. **P < 0.01; *P < 0.05.
(§7) LoVo and LoVo-OXP tumor xenografts were established in 6-week-old BALB/c nu/nu mice by injecting 1 × 10^7 tumor cells subcutaneously (100 μL in serum free medium) on the left dorsal flank. After 24 h from tumor implantation, mice were randomly divided into six groups (6 animals per group, 8 controls). Chemotherapy was delayed until the tumor was about 0.4 cm^3 (day 14). From day 14, HydroCuP was dosed daily at 30 mg/kg i.p. whereas OXP was dosed daily at 2 mg/kg i.p. Measurements of body weights and tumor volumes were recorded from day 14 every 2 days until the experimental endpoint. The long axis (L) and the short axis (S) were measured with callipers, and the tumor volume (V) was calculated using the following equation: V = SxSxL/2. At day 30, animals were sacrificed, and the inhibition of tumor growth was determined by comparing the volume of the control group and the treatment group expressed as percentage referred to the control animals.

[6] = tested on: LoVo colorectal oxaliplatin-resistant xenograft; assay: In vivo activity toward LoVo-OXP (OXP-resistant) tumor xenograft in BALB/c nu/nu mice
Method: as §5, §6, §7

[7] = tested on: Lewis Lung Carcinoma (LLC); assay: In vivo antitumor activity towards Lewis Lung Carcinoma (LLC) implanted i.m. in C57BL mice; parameters: species or system mouse; details: for Average tumor weight (mean ± S.D., g) / Inhibition of tumor growth (%): day 15; for Body weight changes: LLC-bearing C57BL mice
Method: The schedule of HydroCuP administration in vivo was initially determined by assessing the total dose that could be injected without undue toxicity for different schedules in nontumor-bearing C57BL mice (data not shown). […] Three schedules of i.p. HydroCuP were administered: early treatment (days 3, 5, 7 and 9 after tumor inoculum), intermediate treatment (days 7–14) and late treatment with split-doses (days 9–11 with a loading dose and days 12–14 with a lower maintenance dose). […] Cisplatin treatment schedule was selected according to standard protocols designed to optimize its efficacy and minimize the occurrence of adverse events. For the early treatment, control mice received the vehicle (0.9% NaCl). HydroCuP was dosed at 25, 35 and 50 mg/kg i.p. on days 3, 5, 7, 9, 11 and 13 after tumor implantation. Cisplatin was dosed at 1.5 mg/kg i.p. on days 3, 5, 7, 9, 11 and 13 after tumor implantation.
The mice were purchased from Charles River, Italy, housed in steel cages under controlled environmental conditions (constant temperature, humidity, and 12 h dark/light cycle), and alimented with commercial standard feed and tap water ad libitum. The LLC cell line was purchased from ECACC, United Kingdom. The LLC cell line was maintained in DMEM (Euroclone, Pero, Italy) supplemented with 10% heat-inactivated foetal bovine serum (Euroclone, Pero, Italy), 10 mM L-glutamine, 100 U/mL penicillin, and 100 µg/mL streptomycin in a 5% CO2 air incubator at 37 °C. The LLC was implanted intramuscularly (i.m.) as a 2 × 10^6 cell inoculum into the right hind leg of 8-week old male and female C57BL mice (24 ± 3 g body weight). The antitumor activity of HydroCuP in LLC tumor model has been investigated by means of different schedules (early treatment, intermediate treatment and late treatment) and compared with that promoted by the reference metallodrug, CDDP. In the early-stage treatment, animals were treated at day 3, 5, 7, 9, 11 and 13 after the tumor cell inoculum with an i.p. injection of HydroCuP (25, 35 and 50 mg/kg), CDDP (1.5 mg/kg) or the vehicle solution (0.9% NaCl).
In the intermediate treatment, animals were treated after 7 days from tumor implantation (visible tumor) with daily i.p. doses of HydroCuP (30 and 50 mg/kg), CDDP (1.5 mg/kg) or the vehicle solution (0.9% NaCl). In the late treatment, animals were treated after 9 days from tumor implantation (palpable tumor) with i.p. doses of HydroCuP (50 mg/kg) from day 9 to day 11 and with i.p. doses of HydroCuP (30 mg/kg) from day 12 to day 14, or with daily doses of CDDP (1.5 mg/kg) or with the vehicle solution (0.9% NaCl). At day 15, animals were sacrificed, the legs were amputated at the proximal end of the femur, and the inhibition of tumor growth was determined according to the difference in weight of the tumor-bearing leg and the healthy leg of the animals expressed as a percentage referring to the control animals. Body weight was measured every 2 days and was taken as a parameter for systemic toxicity.

[8] = Nephrotoxicity: urinary biomarkers (uTP, NAG) in Sprague Dawley rats; format: in vivo, rat; details: single i.p. 1.5 mg/kg, urine 24, 72, 120 h
Method: Figure 5 Neurotoxicity studies. […] Bar: 500 µm. […] Nephrotoxicity studies. […] Error bars indicate the S.D. The potential nephrotoxic effect of HydroCuP was evaluated by measuring some specific biomarkers in urines obtained from 8-week-old male Sprague Dawley rats treated with a single i.p. injection of HydroCuP and CDDP. Urines of the treated animals were collected after 24, 72 and 120 h, and urinary total protein (uTP) and N-acetyl-β-D-glucosaminidase (NAG) were evaluated as signs of nephrotoxicity. […] On the contrary, treatment with HydroCuP determined a 24 h excretion of uTP roughly 12 times lower than that recorded with CDDP (Fig. 5, panel D). Following 120 h, the levels of uTP excreted by HydroCuP were 11 times lower compared with the reference metallodrug. Eight-week-old male Sprague Dawley rats were randomly allocated to five groups (five animals per group) and treated with a single i.p. injection of HydroCuP (50 mg/kg) or the vehicle solution (0.2 mL saline solution, control). Cisplatin (1.5 mg/kg,) was also used under the same experimental conditions for comparison purposes. […] Later, urines were centrifuged (150 g for 10 minutes at room temperature) to discard debris and aliquoted to measure creatinine, uTP and NAG. Urine creatinine assays were performed using creatinine assay kit from Sigma Chemical Co. (St. Louis, MO). uTPs were measured by means of BioRad Total Protein Test (Hercules, CA). Urinary NAG was measured spectrophotometrically with the NAG kit (Roche diagnostics, Basel, Switzerland) according to the manufacturer’s protocols. uTP and NAG are expressed as grams per millimoles of creatinine (g mmol^−1 creatinine).

[9] = parameters: method as in PMID 24035926; details: patients under cisplatin treatment; cited from earlier work
[10] = 2 mg/kg daily i.p. from day 14, day 30
[11] = Early treatment, 1.5 mg/kg i.p. days 3, 5, 7, 9, 11, 13

Row | SMILES | IC50 [1] [µM] | IC50 [2] [µM] | Rate of symptomatic neurotoxicity with any severity [3] | Reduction of neurite length ([4]; 7.5 µM) [%] | Neurotoxic effect (neurite elongation) [4] | Body weight loss ([5]; 2 mg/kg daily i.p.) | Inhibition of tumor growth [5, 10] | Body weight loss ([6]; 2 mg/kg daily i.p.) | Inhibition of tumor growth [6, 10] [%] | Average tumor weight (mean ± S.D., g) [7, 11] [g] | Inhibition of tumor growth (%) [7, 11] [%] | Body weight changes ([7]; Early treatment, 15 days) | Average tumor weight (mean ± S.D., g) ([7]; Intermediate treatment, 1.5 mg/kg daily i.p. day 7-14) [g] | Inhibition of tumor growth (%) ([7]; Intermediate treatment, 1.5 mg/kg daily i.p. day 7-14, 1.5 mg/kg) | Body weight changes ([7]; Intermediate treatment) | Average tumor weight (mean ± S.D., g) ([7]; Late treatment, 1.5 mg/kg daily i.p. from day 9) [g] | Inhibition of tumor growth (%) ([7]; Late treatment, 1.5 mg/kg daily i.p. from day 9, 1.5 mg/kg) | NAG [8] | uTP excretion [8] | Patients with irreversible renal damage [9]
1 | O=C1[O][Pt]2([NH][C@@H]3CCCC[C@H]3[NH]2)[O]C1=O [OXP, oxaliplatin] | 30.2 ± 2.34 | 22.2 ± 4.75 | more than 70% | 50 | significantly reduced neurite elongation in a dose-dependent manner | about 23% | about 55% | about 23% | 20 | – | – | – | – | – | – | – | – | – | – | –
2 | [NH2][Pt]([NH2])([Cl])[Cl] [CDDP, cisplatin, reference compound] | 68.2 ± 4.58 | 60.6 ± 6.28 | – | – | significantly reduced neurite elongation in a dose-dependent manner | – | – | – | – | 0.168 ± 0.10 | 73.66 | substantial weight loss | 0.061 ± 0.03 | 87% and 87.84% | elevated weight loss | 0.118 ± 0.10 | 73% and 72.68% | significant increase | significant increase of uTP excretion | about one-third
